# Target: T1, proteasome (Homo sapiens, UniProt P28074)
# T1 construct: The obtained high molecular fraction (molecular weight >500K) was used as an enzyme solution for the detection of proteasome activity; endogenous in cells; host or cells: HeLa S3 cells: homogenate, 100,000G supernatant, >500K fraction from Centricon-500
# Experiment: Proteasome inhibitory activity (Suc-Leu-Leu-Val-Tyr-AMC cleavage, crude enzyme solution from HeLa S3 cell extract)
# Assay type: biochemical
# Settings: not given
# Description: 1 x 10^9 of HeLa S3 cells were dispersed in 5 ml of the buffer A [20 mmol/L of Tris (pH 7.5), 2 mmol/L of ATP, 5 mmol/L of MgCl2, 1 mmol/L of dithiothreitol (DTT)], and then homogenized at 4°C. The supernatant centrifuged at 100,000G was concentrated by a Centricon-500 (supplied by Amicon) and diluted with 2.5 ml of the buffer B [25 mmol/L of Tris/HCl (pH 7.5), 2 mmol/L of ATP, 1 mmol/L of DTT, 20% of glycerol]. The obtained high molecular fraction (molecular weight >500K) was used as an enzyme solution for the detection of proteasome activity. Suc-Leu-Leu-Val-Tyr-AMC [Suc: Succinyl; AMC: Aminomethylcoumarin](supplied by Peptide Institute, Inc.) was used as a substrate for measuring inhibitory activity for proteasome (stored as a 2 mmol/L DMSO solution). The reaction was carried out by the following method using 96-well microtiter plates. To 96 µl of a reaction buffer [20 mmol/L of Tris/HCl (pH 8), 0.5 mmol/L of EDTA, 0.04% of sodium dodecylsulfate (SDS)] were added 1 µl of a drug solution (DMSO) and 2 µl of an enzyme solution followed by adding 1 µl of a substrate solution thereto, and then the mixture was incubated at 37°C for one hour. […]
row,SMILES,IC50 [nM]
1,CCC(C)C1C(=O)OC1C(=O)NC1CC1CC(NC(=O)C(C)NC(=O)OC(C)(C)C)C(=O)OC (stereo not shown) [Compound 1],50
2,CCC(C)C1C(=O)OC1C(=O)NC1CC1CC(NC(=O)C(C)NC(=O)OC(C)(C)C)C(=O)OCC[Si](C)(C)C (stereo not shown) [Compound 15],18
3,CCC(C)C1C(=O)OC1C(=O)NC1CC1CC(NC(=O)C(C)NC(=O)OC(C)(C)C)C(=O)NCc1cccc2ccccc12 (stereo not shown) [Compound 21],4
4,CCC(C)C1C(=O)OC1C(=O)NC1CC1CC(NC(=O)C(C)NC(=O)OC(C)(C)C)C(=O)NNc1ccccc1 (stereo not shown) [Compound 23],17
5,CCCCNC(=O)C(CC1CC1NC(=O)C1OC(=O)C1C(C)CC)NC(=O)C(C)NC(=O)OC(C)(C)C (stereo not shown) [Compound 24],15
6,CCCCNC(=O)C(CC1CC1NC(=O)C1OC(=O)C1C(C)CC)NC(=O)C(C)N (stereo not shown) [Compound 25],24
7,CCC(C)C1C(=O)OC1C(=O)NC1CC1CC(NC(=O)C(C)NC(=O)OC(C)(C)C)C(=O)N[C@@H](C)C(=O)OCc1ccccc1 (stereo partly shown) [Compound 27],3
8,CCC(C)C1C(=O)OC1C(=O)NC1CC1CC(NC(=O)C(C)N1C(=O)c2ccccc2C1=O)C(=O)OCc1ccccc1 (stereo not shown) [Compound 42],22

# Same assay, conditions: crude proteasome fraction (>500K) from HeLa S3 cells; substrate Suc-Leu-Leu-Val-Tyr-AMC; 37°C for one hour
row,SMILES,IC50 [nM]
1,CCC(C)C1C(=O)OC1C(=O)NC1CC1CC(NC(=O)C(C)NC(=O)OC(C)(C)C)C(=O)OCC1CCCCC1 (stereo not shown) [Compound 14],18
2,CCC(C)C1C(=O)OC1C(=O)NC1CC1CC1NC(=O)C(C)NC1=O (stereo not shown) [Compound 44],47
3,CC(C)CC1C(=O)OC1C(=O)NCC(NC(=O)OC(C)(C)C)C(=O)OCc1ccccc1 (stereo not shown) [Compound 47],150
4,COc1ccc(CC(NC(=O)OC(C)(C)C)C(=O)OCc2ccccc2)cc1NC(=O)C1OC(=O)C1CC(C)C (stereo not shown) [Compound 81],500

# Same assay, conditions: crude proteasome fraction (>500K) from HeLa S3 cells; substrate Suc-Leu-Leu-Val-Tyr-AMC; 37°C for one hour; read-out: IC50
row,SMILES,IC50 [nM]
1,CCC(C)C1C(=O)OC1C(=O)NC1CC1CC(NC(=O)C(C)N)C(=O)OCc1ccc2ccccc2c1 (stereo not shown) [Compound 6],38
2,CCC(C)C1C(=O)OC1C(=O)NC1CC1CC(NC(=O)C(C)NC(=O)OC(C)(C)C)C(=O)OCc1c2ccccc2cc2ccccc12 (stereo not shown) [Compound 7],17
3,CCCCOC(=O)C(CC1CC1NC(=O)C1OC(=O)C1C(C)CC)NC(=O)C(C)N (stereo not shown) [Compound 12],51

# The remaining lines, values ahead:
row,IC50 [nM],SMILES
1,70,CCC(C)C1C(=O)OC1C(=O)NC1CC1CC(NC(=O)C(C)N)C(=O)OC (stereo not shown) [Compound 2]
2,15,CCC(C)C1C(=O)OC1C(=O)NC1CC1CC(NC(=O)C(C)NC(=O)OC(C)(C)C)C(=O)OCc1ccccc1 (stereo not shown) [Compound 3]
3,6.2,CCC(C)C1C(=O)OC1C(=O)NC1CC1CC(NC(=O)C(C)NC(=O)OC(C)(C)C)C(=O)OCc1ccc2ccccc2c1 (stereo not shown) [Compound 5]
4,14,CCC(C)C1C(=O)OC1C(=O)NC1CC1CC(NC(=O)C(C)NC(=O)OC(C)(C)C)C(=O)OCc1cccc(F)c1 (stereo not shown) [Compound 8]
5,26,C=CCOC(=O)C(CC1CC1NC(=O)C1OC(=O)C1C(C)CC)NC(=O)C(C)NC(=O)OC(C)(C)C (stereo not shown) [Compound 9]
6,46,C=CCOC(=O)C(CC1CC1NC(=O)C1OC(=O)C1C(C)CC)NC(=O)C(C)N (stereo not shown) [Compound 10]
7,19,CCCCOC(=O)C(CC1CC1NC(=O)C1OC(=O)C1C(C)CC)NC(=O)C(C)NC(=O)OC(C)(C)C (stereo not shown) [Compound 11]
8,30,CCC(C)C1C(=O)OC1C(=O)NC1CC1CC(NC(=O)C(C)NC(=O)OC(C)(C)C)C(=O)OC(C)(C)C (stereo not shown) [Compound 13]
9,52,CCC(C)C1C(=O)OC1C(=O)NC1CC1CC(NC(=O)C(C)NC(=O)OC(C)(C)C)C(=O)OCCO (stereo not shown) [Compound 16]
10,19,CCC(C)C1C(=O)OC1C(=O)NC1CC1CC(NC(=O)C(C)NC(=O)OC(C)(C)C)C(=O)OCOC (stereo not shown) [Compound 17]

# Test system: Human colon cancer, WiDr cells
# Experiment: Antiproliferative activity in WiDr cells (MTT, 72 hours)
# Assay type: cell-based
# Settings: not given
# Description: Human colon cancer, WiDr cells suspended in MEM media containing 10% of fetal calf serum were seeded in 96-well microtiter plates at 2 x 10^3cells/well, and precultured in an incubator with 5% of CO2 at 37°C for 24 hours. Then, each compound diluted appropriately with the media was added into the well at 50 µl/well. At this time, a final concentration of each compound is up to 100 µmol/l or 1 µmol/l. The cells were cultured in the incubator with 5% of CO2 at 37°C for additional 72 hours. At 5 hours before the culturing was terminated, MTT [3-(4,5-dimethylthiazol-2-yl)-2,5-[…] bromide] dissolved in the medium at a final concentration of 1 mg/mL was added into the well at 50 µl/well. After the culturing, dimethyl sulfoxide was added to the well at 150 µl/well, and the plate was vigorously stirred using a plate mixer to dissolve crystals of MTT-formazan completely. […]
row,SMILES,IC50 [nM]
1,CCC(C)C1C(=O)OC1C(=O)NC1CC1CC(NC(=O)C(C)NC(=O)OC(C)(C)C)C(=O)OC (stereo not shown) [Compound 1],790
2,CCC(C)C1C(=O)OC1C(=O)NC1CC1CC(NC(=O)C(C)N)C(=O)OCc1ccc2ccccc2c1 (stereo not shown) [Compound 6],40
3,CCC(C)C1C(=O)OC1C(=O)NC1CC1CC(NC(=O)C(C)NC(=O)OC(C)(C)C)C(=O)OCc1c2ccccc2cc2ccccc12 (stereo not shown) [Compound 7],700
4,CCCCOC(=O)C(CC1CC1NC(=O)C1OC(=O)C1C(C)CC)NC(=O)C(C)N (stereo not shown) [Compound 12],< 41
5,CCC(C)C1C(=O)OC1C(=O)NC1CC1CC(NC(=O)C(C)NC(=O)OC(C)(C)C)C(=O)OCC1CCCCC1 (stereo not shown) [Compound 14],300
6,CCC(C)C1C(=O)OC1C(=O)NC1CC1CC(NC(=O)C(C)NC(=O)OC(C)(C)C)C(=O)OCC[Si](C)(C)C (stereo not shown) [Compound 15],200
7,CCC(C)C1C(=O)OC1C(=O)NC1CC1CC(NC(=O)C(C)NC(=O)OC(C)(C)C)C(=O)NCc1cccc2ccccc12 (stereo not shown) [Compound 21],520
8,CCC(C)C1C(=O)OC1C(=O)NC1CC1CC(NC(=O)C(C)NC(=O)OC(C)(C)C)C(=O)NNc1ccccc1 (stereo not shown) [Compound 23],410
9,CCCCNC(=O)C(CC1CC1NC(=O)C1OC(=O)C1C(C)CC)NC(=O)C(C)NC(=O)OC(C)(C)C (stereo not shown) [Compound 24],20
10,CCCCNC(=O)C(CC1CC1NC(=O)C1OC(=O)C1C(C)CC)NC(=O)C(C)N (stereo not shown) [Compound 25],59

# Other lines, results leading:
row,IC50 [nM],SMILES
1,37,CCC(C)C1C(=O)OC1C(=O)NC1CC1CC(NC(=O)C(C)NC(=O)OC(C)(C)C)C(=O)OCc1ccccc1 (stereo not shown) [Compound 3]
2,30,CCC(C)C1C(=O)OC1C(=O)NC1CC1CC(NC(=O)C(C)NC(=O)OC(C)(C)C)C(=O)OCc1ccc2ccccc2c1 (stereo not shown) [Compound 5]
3,10,C=CCOC(=O)C(CC1CC1NC(=O)C1OC(=O)C1C(C)CC)NC(=O)C(C)NC(=O)OC(C)(C)C (stereo not shown) [Compound 9]
4,68,C=CCOC(=O)C(CC1CC1NC(=O)C1OC(=O)C1C(C)CC)NC(=O)C(C)N (stereo not shown) [Compound 10]
5,10,CCCCOC(=O)C(CC1CC1NC(=O)C1OC(=O)C1C(C)CC)NC(=O)C(C)NC(=O)OC(C)(C)C (stereo not shown) [Compound 11]
6,490,CCC(C)C1C(=O)OC1C(=O)NC1CC1CC(NC(=O)C(C)NC(=O)OC(C)(C)C)C(=O)OC(C)(C)C (stereo not shown) [Compound 13]
7,950,CCC(C)C1C(=O)OC1C(=O)NC1CC1CC(NC(=O)C(C)NC(=O)OC(C)(C)C)C(=O)OCCO (stereo not shown) [Compound 16]
8,180,CCC(C)C1C(=O)OC1C(=O)NC1CC1CC(NC(=O)C(C)NC(=O)OC(C)(C)C)C(=O)OCOC (stereo not shown) [Compound 17]

# Reference: EP1166781A1, “PROTEASOME INHIBITORS” (KYOWA HAKKO KOGYO CO., LTD., priority 1999, dated 2000)
